What was measured:
U87 tumor xenograft = experiment: Biodistribution in U87 tumor-bearing SCID mice; assay type: in vivo; conditions: listed as (S)-[^18F]FAMP 1
[1] = test system: MDA MB468 tumor xenograft; experiment: Biodistribution in MDA MB468 tumor-bearing SCID mice; assay type: in vivo
[2] = test system: A549 lung adenocarcinoma cells; experiment: Amino acid uptake and inhibition in A549 cells; assay type: cell-based, human; conditions: A549, 30 minutes incubation
[3] = test system: SCID mice xenograft tumor models; assay type: in vivo; conditions: in most cases, over tumors and time points
[4] = test system: rat orthotopic brain tumor model; conditions: rat orthotopic brain tumor model, 60 min; cited from earlier work
A549 tumor xenograft = experiment: Biodistribution in A549 tumor-bearing SCID mice; assay type: in vivo; conditions: listed as (S)-[^18F]FAMP 1
[5] = 15 min post injection, listed as (S)-[^18F]FAMP 1
[6] = 30 min post injection, listed as (S)-[^18F]FAMP 1
[7] = 60 min post injection, listed as (S)-[^18F]FAMP 1
[8] = 120 min post injection, listed as (S)-[^18F]FAMP 1

CC(N)(C[18F])C(=O)O [(S)-[^18F]1] [2-amino-3-[^18F]fluoro-2-methylpropanoic acid]
uptake in blood (U87 tumor xenograft; 15 min post injection): 3.5±0.4 %ID/g | uptake in bone (U87 tumor xenograft; 15 min post injection): 2.4±0.7 %ID/g | uptake in brain (U87 tumor xenograft; 15 min post injection): 0.5±0.1 %ID/g | uptake in heart (U87 tumor xenograft; 15 min post injection): 3.1±0.4 %ID/g | uptake in kidney (U87 tumor xenograft; 15 min post injection): 37±4.9 %ID/g | uptake in liver (U87 tumor xenograft; 15 min post injection): 6.6±2.0 %ID/g | uptake in lung (U87 tumor xenograft; 15 min post injection): 4.6±0.6 %ID/g | uptake in muscle (U87 tumor xenograft; 15 min post injection): 3.3±0.7 %ID/g | uptake in pancreas (U87 tumor xenograft; 15 min post injection): 48±11 %ID/g | uptake in spleen (U87 tumor xenograft; 15 min post injection): 11±2.7 %ID/g | uptake in tumor (U87 tumor xenograft; 15 min post injection): 6.4±1.3 %ID/g | uptake in blood (U87 tumor xenograft; 30 min post injection): 3.7±0.7 %ID/g | uptake in bone (U87 tumor xenograft; 30 min post injection): 2.1±0.5 %ID/g | uptake in brain (U87 tumor xenograft; 30 min post injection): 0.6±0.1 %ID/g | uptake in heart (U87 tumor xenograft; 30 min post injection): 3.1±0.4 %ID/g | uptake in kidney (U87 tumor xenograft; 30 min post injection): 28±5.2 %ID/g | uptake in liver (U87 tumor xenograft; 30 min post injection): 6.0±1.0 %ID/g | uptake in lung (U87 tumor xenograft; 30 min post injection): 3.6±0.5 %ID/g | uptake in muscle (U87 tumor xenograft; 30 min post injection): 3.3±0.3 %ID/g | uptake in pancreas (U87 tumor xenograft; 30 min post injection): 50±8.7 %ID/g | uptake in spleen (U87 tumor xenograft; 30 min post injection): 10±1.0 %ID/g | uptake in tumor (U87 tumor xenograft; 30 min post injection): 6.8±0.8 %ID/g | uptake in blood (U87 tumor xenograft; 60 min post injection): 2.1±0.4 %ID/g | uptake in bone (U87 tumor xenograft; 60 min post injection): 2.0±0.1 %ID/g | uptake in brain (U87 tumor xenograft; 60 min post injection): 0.6±0.1 %ID/g | uptake in heart (U87 tumor xenograft; 60 min post injection): 2.8±0.7 %ID/g | uptake in kidney (U87 tumor xenograft; 60 min post injection): 15±3.3 %ID/g | uptake in liver (U87 tumor xenograft; 60 min post injection): 4.4±0.6 %ID/g | uptake in lung (U87 tumor xenograft; 60 min post injection): 2.6±0.8 %ID/g | uptake in muscle (U87 tumor xenograft; 60 min post injection): 2.3±0.3 %ID/g | uptake in pancreas (U87 tumor xenograft; 60 min post injection): 32±11 %ID/g | uptake in spleen (U87 tumor xenograft; 60 min post injection): 6.1±1.1 %ID/g | uptake in tumor (U87 tumor xenograft; 60 min post injection): 4.4±0.8 %ID/g | uptake in blood (U87 tumor xenograft; 120 min post injection): 1.2±0.5 %ID/g | uptake in bone (U87 tumor xenograft; 120 min post injection): 1.0±0.3 %ID/g | uptake in brain (U87 tumor xenograft; 120 min post injection): 0.7±0.2 %ID/g | uptake in heart (U87 tumor xenograft; 120 min post injection): 2.1±0.3 %ID/g | uptake in kidney (U87 tumor xenograft; 120 min post injection): 7.3±1.4 %ID/g | uptake in liver (U87 tumor xenograft; 120 min post injection): 4.1±1.3 %ID/g | uptake in lung (U87 tumor xenograft; 120 min post injection): 1.5±0.4 %ID/g | uptake in muscle (U87 tumor xenograft; 120 min post injection): 1.3±0.3 %ID/g | uptake in pancreas (U87 tumor xenograft; 120 min post injection): 18±6.4 %ID/g | uptake in spleen (U87 tumor xenograft; 120 min post injection): 3.4±1.1 %ID/g | uptake in tumor (U87 tumor xenograft; 120 min post injection): 2.8±0.4 %ID/g | uptake in blood [1, 5]: 4.2±0.3 %ID/g | uptake in bone [1, 5]: 2.5±0.3 %ID/g | uptake in brain [1, 5]: 0.6±0.1 %ID/g | uptake in heart [1, 5]: 3.4±0.3 %ID/g | uptake in kidney [1, 5]: 39±3.3 %ID/g | uptake in liver [1, 5]: 4.8±0.9 %ID/g | uptake in lung [1, 5]: 4.5±1.3 %ID/g | uptake in muscle [1, 5]: 3.9±0.7 %ID/g | uptake in pancreas [1, 5]: 51±10 %ID/g | uptake in spleen [1, 5]: 14±2.8 %ID/g | uptake in tumor [1, 5]: 5.8±0.7 %ID/g | uptake in blood [1, 6]: 3.6±0.4 %ID/g | uptake in bone [1, 6]: 2.4±0.6 %ID/g | uptake in brain [1, 6]: 0.8±0.2 %ID/g | uptake in heart [1, 6]: 3.2±0.3 %ID/g | uptake in kidney [1, 6]: 29±6.1 %ID/g | uptake in liver [1, 6]: 4.7±0.8 %ID/g | uptake in lung [1, 6]: 4.3±1.9 %ID/g | uptake in muscle [1, 6]: 3.4±0.4 %ID/g | uptake in pancreas [1, 6]: 56±7.6 %ID/g | uptake in spleen [1, 6]: 12±4.2 %ID/g | uptake in tumor [1, 6]: 6.1±1.4 %ID/g | uptake in tumor ([1]; 60 min post injection): 4.8±1.2 %ID/g | uptake in blood [1, 7]: 2.9±1.0 %ID/g | uptake in bone [1, 7]: 2.2±0.6 %ID/g | uptake in brain [1, 7]: 0.7±0.1 %ID/g | uptake in heart [1, 7]: 2.9±0.5 %ID/g | uptake in kidney [1, 7]: 20±2.7 %ID/g | uptake in liver [1, 7]: 4.3±0.6 %ID/g | uptake in lung [1, 7]: 2.6±0.6 %ID/g | uptake in muscle [1, 7]: 2.7±0.6 %ID/g | uptake in pancreas [1, 7]: 46±9.5 %ID/g | uptake in spleen [1, 7]: 7.1±0.9 %ID/g | uptake in blood [1, 8]: 1.5±0.1 %ID/g | uptake in bone [1, 8]: 1.0±0.6 %ID/g | uptake in brain [1, 8]: 0.8±0.1 %ID/g | uptake in heart [1, 8]: 2.0±0.2 %ID/g | uptake in kidney [1, 8]: 11±1.4 %ID/g | uptake in liver [1, 8]: 2.6±0.2 %ID/g | uptake in lung [1, 8]: 1.6±0.4 %ID/g | uptake in muscle [1, 8]: 1.3±0.5 %ID/g | uptake in pancreas [1, 8]: 23±6.8 %ID/g | uptake in spleen [1, 8]: 5.6±2.2 %ID/g | uptake in tumor [1, 8]: 5.0±0.4 %ID/g | Cell uptake ([2]; 10 mM BCH): 1.5±0.1 % ID/5×10^5 cells | Cell uptake ([2]; 10 mM MeAIB): 3.9±0.6 % ID/5×10^5 cells | Cell uptake ([2]; Control (no inhibitor)): 4.8±0.7 % ID/5×10^5 cells | ratio of tumor to muscle [3]: above 2 | brain uptake [4]: 0.06±0.01 %ID/g | uptake in blood (A549 tumor xenograft; 15 min post injection): 3.9±0.6 %ID/g | uptake in bone (A549 tumor xenograft; 15 min post injection): 2.6±0.8 %ID/g | uptake in brain (A549 tumor xenograft; 15 min post injection): 0.5±0.1 %ID/g | uptake in heart (A549 tumor xenograft; 15 min post injection): 3.2±0.7 %ID/g | uptake in kidney (A549 tumor xenograft; 15 min post injection): 29±5.7 %ID/g | uptake in liver (A549 tumor xenograft; 15 min post injection): 3.7±0.5 %ID/g | uptake in lung (A549 tumor xenograft; 15 min post injection): 5.5±2.0 %ID/g | uptake in muscle (A549 tumor xenograft; 15 min post injection): 3.3±0.7 %ID/g | uptake in pancreas (A549 tumor xenograft; 15 min post injection): 42±8.4 %ID/g | uptake in spleen (A549 tumor xenograft; 15 min post injection): 9.0±3.0 %ID/g | uptake in tumor (A549 tumor xenograft; 15 min post injection): 6.7±1.7 %ID/g | uptake in blood (A549 tumor xenograft; 30 min post injection): 3.1±0.6 %ID/g | uptake in bone (A549 tumor xenograft; 30 min post injection): 2.5±0.6 %ID/g | uptake in brain (A549 tumor xenograft; 30 min post injection): 0.6±0.1 %ID/g | uptake in heart (A549 tumor xenograft; 30 min post injection): 3.3±0.4 %ID/g | uptake in kidney (A549 tumor xenograft; 30 min post injection): 21±6.9 %ID/g | uptake in liver (A549 tumor xenograft; 30 min post injection): 3.8±0.6 %ID/g | uptake in lung (A549 tumor xenograft; 30 min post injection): 4.3±1.7 %ID/g | uptake in muscle (A549 tumor xenograft; 30 min post injection): 3.0±0.8 %ID/g | uptake in pancreas (A549 tumor xenograft; 30 min post injection): 39±8.2 %ID/g | uptake in spleen (A549 tumor xenograft; 30 min post injection): 8.4±1.7 %ID/g | uptake in tumor (A549 tumor xenograft; 30 min post injection): 7.9±1.0 %ID/g | uptake in blood (A549 tumor xenograft; 60 min post injection): 2.3±0.1 %ID/g | uptake in bone (A549 tumor xenograft; 60 min post injection): 2.7±0.6 %ID/g | uptake in brain (A549 tumor xenograft; 60 min post injection): 0.8±0.1 %ID/g | uptake in heart (A549 tumor xenograft; 60 min post injection): 3.0±0.4 %ID/g | uptake in kidney (A549 tumor xenograft; 60 min post injection): 17±1.4 %ID/g | uptake in liver (A549 tumor xenograft; 60 min post injection): 3.5±0.4 %ID/g | uptake in lung (A549 tumor xenograft; 60 min post injection): 2.8±1.3 %ID/g | uptake in muscle (A549 tumor xenograft; 60 min post injection): 2.9±0.6 %ID/g | uptake in pancreas (A549 tumor xenograft; 60 min post injection): 33±6.1 %ID/g | uptake in spleen (A549 tumor xenograft; 60 min post injection): 6.5±1.1 %ID/g | uptake in tumor (A549 tumor xenograft; 60 min post injection): 8.3±1.0 %ID/g | uptake in blood (A549 tumor xenograft; 120 min post injection): 2.0±0.4 %ID/g | uptake in bone (A549 tumor xenograft; 120 min post injection): 2.0±0.5 %ID/g | uptake in brain (A549 tumor xenograft; 120 min post injection): 0.8±0.1 %ID/g | uptake in heart (A549 tumor xenograft; 120 min post injection): 2.7±0.8 %ID/g | uptake in kidney (A549 tumor xenograft; 120 min post injection): 14±1.8 %ID/g | uptake in liver (A549 tumor xenograft; 120 min post injection): 2.8±0.4 %ID/g | uptake in lung (A549 tumor xenograft; 120 min post injection): 3.1±0.9 %ID/g | uptake in muscle (A549 tumor xenograft; 120 min post injection): 2.3±0.4 %ID/g | uptake in pancreas (A549 tumor xenograft; 120 min post injection): 29±2.3 %ID/g | uptake in spleen (A549 tumor xenograft; 120 min post injection): 6.0±1.7 %ID/g | uptake in tumor (A549 tumor xenograft; 120 min post injection): 6.5±0.8 %ID/g

Reference: publication PMC4268243 (Nuclear medicine and biology, 2014)
